Measurements taken from patent publication US8129383B2, “Aminopterin dosage forms and methods for inflammatory disorders” (Aminopterin LLC, priority 2005, dated 2012).
pEC50: −log10 of the molar value.

Tests used:
[1] = test system: neutrophils that accumulated in the carrageenan-treated air pouches
Method: J. Clin. Invest., 1993. 92(6):2675-82].
A separate group of 5 animals was given vehicle by ip injection on the same days (0.9% saline, control, n=5). On day 16, air pouches were induced on the animals by injecting 3 ml of air subcutaneously on the back. On day 22 (i.e. one day after the last dose of drug or vehicle), inflammation was induced by injection of 1 ml of a suspension of carrageenan (2% weight/volume in calcium- and magnesium-free PBS). The mice were put back in their cages and allowed to run free for 4 hours. […] After 4 hours, the animals were sacrificed, the pouches flushed with 2 ml of PBS and the exudates harvested. Aliquots were diluted 1:1 with methylene blue (0.01% w/v in PBS), and the cells were counted.

[2] = test system: carrageenan-induced inflammation in air pouches; experiment: duration of efficacy in the murine air-pouch model after cessation of 4 weeks of dosing; type: in vivo, mice; details: aminopterin 0.05 mg/kg, methotrexate 1.0 mg/kg
Method: We therefore examined the rate at which anti-inflammatory activity was lost in the air-pouch model after the cessation of 4 weeks of dosing at the maximally efficacious dose (FIG. 2).
On day 25 the air pouches were re-inflated with 1.5 ml of air. Pouches were re-inflated as needed to maintain them.

[3] = test system: canine atopic dermatitis
Method: […] Subjects were assessed at baseline and at weeks 2 and 4 of the trial, and every other week of the 1-year extension phase.
Subjects were assessed at baseline and at weeks 2 and 4.

[4] = test system: ma104 cells; experiment: adenosine release from ma104 cells; type: cell-based; details: 8 hours incubation
Method: Various concentrations of aminopterin were incubated with ma104 cells for 8 hours, and the release of adenosine measured (FIG. 5).

[5] = biological target: T1, dihydrofolate reductase (DHFR) in the liver (Mus musculus, UniProt P00375); experiment: free DHFR in liver by 3H-MTX binding after weekly dosing; type: in vivo, mice
T1 construct: from tissue; host or cells: liver (homogenate supernatant) of dosed mice
T1 sequence (P00375 1-187): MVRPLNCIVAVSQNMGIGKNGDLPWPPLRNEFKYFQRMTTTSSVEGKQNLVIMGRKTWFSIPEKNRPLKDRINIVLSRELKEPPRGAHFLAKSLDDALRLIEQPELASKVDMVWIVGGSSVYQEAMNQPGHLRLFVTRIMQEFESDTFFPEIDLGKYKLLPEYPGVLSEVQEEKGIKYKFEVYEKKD
Method: The animals that were treated in Example 1 were further analyzed with respect to the free dihydrofolate reductase (DHFR) available in their livers (i.e., amount of DHFR unbound, or not inhibited by either AMT or MTX) (FIG. 6). The following procedure was used. Portions of frozen liver were weighed and homogenized in three volumes of assay buffer (10 mM KPO4, 150 mM KCl, 1 mg/ml charcoal-treated BSA, 0.1 mg/ml NADPH, pH 7.5) on ice. After centrifugation for 30 min at 16000×G at 4° C., tissue extract was assayed for free DHFR by binding of 3H-MTX. Three serial 1:2 dilutions were made in assay buffer (total 100 μl/tube), starting with 10 μl extract for control samples (+190 μl buffer) or 100 μl for antifolate-treated samples. Approximately 2 pmoles of 3H-MTX (˜100,000 dpms) in 100 μl buffer was added to each tube and mixed by addition of another 100 μl buffer and agitation. After 30 mins on ice, unbound 3H-MTX was removed by addition of 200 μl dextran-coated activated charcoal (2.5% activated charcoal and 0.5% dextran MW 10,000) and centrifugation. Radioactivity in the supernatant (=bound 3H-MTX) was counted after careful removal from the charcoal pellet and addition of Ultima Gold scintillation fluid. A charcoal “blank” consisting of buffer, 3H-MTX and charcoal was subtracted from each value. Results were calculated by averaging the dpms bound/100 μl of the three dilutions, converting to picomoles MTX (specific activity 49,000 dpms/picomole, determined by competitive radioligand assay), and multiplying by 30 to give picomoles/gm tissue.

[6] = test system: chronic progressive multiple sclerosis; experiment: randomized, placebo-controlled clinical trial in chronic progressive multiple sclerosis; type: in vivo, human
Method: A prophetic randomized, double-blinded, placebo-controlled, clinical trial of low-dose, weekly, oral aminopterin is performed in 60 patients with clinically definite chronic progressive multiple sclerosis (MS) attending a referral-based outpatient MS clinic. Study patients are 21 to 60 years old with a disease duration of longer than 1 year. Patients' Expanded Disability Status Scale scores were 3.0 to 6.5 (ambulatory with moderate disability). Patients are first stratified by Expanded Disability Status Scale scores, 3.0 to 5.5 and 6.0 to 6.5, and then were randomized to receive aminopterin or placebo treatment. Treatment consists of weekly, oral, low-dose (1.0-2.0 mg) aminopterin or placebo for 2 years, followed by observation for as long as 1 year. A composite outcome measurement instrument is used and consists of (1) Expanded Disability Status Scale (EDSS), (2) ambulation index, (3) Box and Block Test, and (4) 9-Hole Peg Test. Failure of therapy is indicated by a designated change that is sustained for more than 2 months in one or more components of this composite measure.

[7] = biological target: T2, partially purified chicken liver DHFR (Gallus gallus, UniProt P00378); experiment: radioligand DHFR binding assay
T2 sequence (P00378 1-189): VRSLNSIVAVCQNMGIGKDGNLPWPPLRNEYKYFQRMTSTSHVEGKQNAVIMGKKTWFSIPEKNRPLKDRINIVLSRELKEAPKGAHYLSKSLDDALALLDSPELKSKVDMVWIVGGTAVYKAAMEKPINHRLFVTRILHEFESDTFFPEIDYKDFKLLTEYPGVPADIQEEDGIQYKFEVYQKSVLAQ
Method: 16:1458, 1998]. […] After the standard curve is established, a portion of the 200 μM supernatant prepared above for an aminopterin tablet is further diluted 10,000 using two serial 100-fold dilutions with water to provide an approximately 20 nM solution of aminopterin. The DHFR assay is performed with 100 μL of the 20 nM solution, as well as several 2-fold serial dilutions, and the result expressed as pmol/ml aminopterin. The total number of pmol of aminopterin is calculated using the relationship, pmol/ml×10,000×11.35. The total number of mg in the tablet is then calculated using the relationship, total pmol×(10^−6 μmole/pmol)×0.44 mg/μmole.

[8] = test system: antigen-induced arthritis; details: cumulative weekly doses of >1.5 mg/kg; cited from earlier work

In the case of `Nc1nc(N)c2nc(CNc3ccc(C(=O)N[C@@H](CCC(=O)O)C(=O)O)cc3)cnc2n1` [aminopterin, 4-amino-pteroyl-L-glutamic acid], the “potency relative to methotrexate” value ([1]; ratio of EC50s, P<0.001) was 43 fold, the “signs of toxicity at the end of the dosing period” value ([1]; weekly ip doses, aminopterin 0.0005-0.050 mg/kg, methotrexate 0.01-1.00 mg/kg) was “no signs of toxicity” and the “EC50 for diminishing the number of neutrophils accumulated in carrageenan-treated air pouches” value ([1]; weekly ip injection days 1, 7, 14, 21, carrageenan day 22, exudate after 4 hours) was 0.0009 mg/kg/wk. For the same molecule, the “difference between aminopterin and methotrexate in rate of recovery of inflammation” value ([2]; 8, 12 or 22 days after last of 4 weekly ip doses) was “no statistically significant difference”, the duration of action ([2]; after last of 4 weekly ip doses) was “quite long” and the “median improvement from baseline in PVAS score” value ([3]; 5 dogs, oral 0.01 mg/kg/week, 4 weeks, range −4 to +2) was −4. For the same molecule, the “median improvement from baseline in CADESI score” value ([3]; 5 dogs, oral 0.01 mg/kg/week, 4 weeks, range −11 to −91%) was −59%, the “median improvement from baseline in composite CADESI×pruritis score” value ([3]; 5 dogs, oral 0.01 mg/kg/week, 4 weeks, range −97 to +24%) was −60% and the “clinical evidence of hematologic (CBC) or liver toxicity (LFTs)” value ([3]; dogs treated up to 20 weeks at 0.01 mg/kg/week) was “no clinical evidence of hematologic (CBC) or liver toxicity (LFTs)”. For the same molecule, the “overall evaluation of efficacy by owners” value ([3]; median score 2, range 1 to 4, oral 0.01 mg/kg/week, 4 weeks) was “fair (fair (25-50%))”, the “overall evaluation of efficacy by clinicians” value ([3]; median score 2, range 1 to 5, oral 0.01 mg/kg/week, 4 weeks) was “fair (fair (25-50%))” and the pEC50 [4] was 9.30. The “available DHFR in the liver bound (inhibited)” value ([5]; 1 day after the last of 4 sequential weekly doses) was “about 95%”, the “available DHFR in the liver bound (inhibited)” value ([5]; 8 d after the last of 4 weekly doses) was “about 83%” and the “available DHFR in the liver bound (inhibited)” value ([5]; 22 d after the last of 4 weekly doses) was “about 70%”. For the same molecule, the “toxicity in the treatment group” value ([6]; weekly oral 1.0-2.0 mg for 2 years) was “absence of clinically significant toxicity”, the “progression of impairment (EDSS, ambulation index, Box and Block Test, 9-Hole Peg Test or composite)” value ([6]; weekly oral 1.0-2.0 mg for 2 years vs placebo) was “Significantly less progression of impairment” and the “displacement of 3H-methotrexate and binding to DHFR, aminopterin vs methotrexate” value [7] was “equivalent”. The efficacy [8] was “demonstrated the efficacy” and the toxicity [8] was “severe toxicity”.
